Source: US9718846B1, “Crystalline polymorphs of benfotiamine, process for preparation and its use thereof” (Shanghai Ri Xin Biotechnolgy Co., Ltd., priority 2012, dated 2017)

What was measured:
[1] = Dynamic vapor sorption analysis of hygroscopicity; format: physicochemical; details: RH from 5% to 95%, comparison of forms A, C, D, E
Excerpt: Dynamic vapor sorption analysis was used for measurement of the hygroscopicity of crystalline form A, C, D, and E under the scope of relative humidity (RH) from 5% to 95%.

[2] = Solubility in methanol/dichloromethane mixture; format: physicochemical; details: methanol/dichloromethane mixture (1:3 v/v), organic solvent or mixture; mixture organic solvent of methanol and dichloromethane (volume ratio 1:3)
Protocol: In 200 μl of a mixture organic solvent of methanol and dichloromethane (volume ratio 1:3) was added 10 mg of the crystalline form E of benfotiamine (solubility 50 mg/ml). Then, 1 ml of the poor solvent of ethanol was slowly added to the mixture along device wall. Precipitated crystals were collected by filtration, followed by evaporated in the air.

Row | Compound | hygroscopicity rank among the four crystalline forms [1] | solubility [2] [mg/mL]
1 | C/C(=C(\CCO[P+]([O-])(O)O)SC(=O)c1ccccc1)N(C=O)Cc1cnc(C)nc1N [crystalline form D, S-benzoylthiamine O-monophosphate] | highest | –
2 | C/C(=C(\CCO[P+]([O-])(O)O)SC(=O)c1ccccc1)N(C=O)Cc1cnc(C)nc1N [crystalline form E, S-benzoylthiamine O-monophosphate] | lowest | 50
